According to ChEMBL document CHEMBL5727273, “Heteroaryldiazepine derivatives as RSV inhibitors” (2019):

Assay: RSV assay: Following extensive parameter testing, the final assay is run as follows: HEp-2 cells are seeded into the inner 60 wells of a 96-well plate at 8,000 cells per well in a volume of 50 μL using Growth Media (DMEM without phenol red, 1% L-Glut, 1% Penn/Strep, 1% nonessential amino acids, 10% FBS). 2-fold serial dilutions of control and test compounds are added to the wells in duplicate in a total volume of 25 μL. Viral stock is then added to the wells in a volume of 25 μL, bringing the total volume of each well to 100 μL. Each 96-well plate has a control column of 6 wells with cells and virus but no compound (negative control, max CPE), a column with cells but no compound or virus (positive control, minimum CPE), and a column with no cells or virus or compound (background plate/reagent control). The control wells with cells but no virus are given an additional 25 uL of growth media containing an equal quantity of sucrose as those wells receiving the viral stock in order to keep consistent in media and volume conditions. The outer wells of the plate are filled with 125 μL of growth media to act as a thermal and evaporative moat around the test wells. Following a 4-day incubation period, the plates are read using ATPlite (50 uL added per well), which quantifies the amount of ATP (a measure of cell health) present in each well. Assay plates are read using the Envision luminometer.

Row | Structure (SMILES) | EC50 (HEp-2) [nM] | EC50 [nM]
1 | O=C(NC1N=C(c2ccccc2)c2ccsc2NC1=O)OCc1ccccc1 (centres undefined) | 600 | 
2 | O=C1Nc2cnccc2C(c2ccccc2)=NC1Nc1nnc(-c2ccc(F)cc2)o1 (centres undefined) | > 800 | 
3 | O=C1Nc2cccnc2C(c2ccccc2)=NC1Nc1nnc(-c2ccccc2)o1 (centres undefined) | > 800 | 
4 | NC1N=C(c2ccccc2)c2sccc2NC1=O (centres undefined) | 600 | 
5 | O=C1Nc2ncccc2C(c2ccccc2)=NC1Nc1nnc(-c2ccc(F)cc2)o1 (centres undefined) | > 800 | 
6 | Cc1sc2c(c1C)C(c1ccccc1)=NC(Nc1nnc(-c3ncc(C(F)(F)F)cc3N3CCOCC3)o1)C(=O)N2 (centres undefined) | 600 | > 800
7 | Cc1cc(C(=O)c2ccccc2)c(N)s1 | < 400 | > 800
